Data from publication PMC2362650, “Phase I and pharmacokinetic study of the topoisomerase II catalytic inhibitor fostriecin” (British Journal of Cancer, 1999).
Read-outs that look alike come from different tables or passages of the source.

Tests used:
[1] = set-up: method as in Clinical Brochure Fostriecin, 1991; settings: mouse; 5-day schedule; ref Clinical Brochure Fostriecin, 1991; cited from earlier work
[2] = Plasma and urine pharmacokinetics (HPLC-UV) in patients after 60-min IV infusion; format: in vivo, human; settings: human; for Cmax / AUC / MRT / half-life: plasma, intravenous, day 1 course 1; for Cmax: observed value; for MRT: read-out: MRT
Text: Fostriecin (CI-920) is a topoisomerase (topo) II catalytic activity inhibitor (Boritzki et al, 1988) (Figure 1). This novel class of topo II-targeting drugs is considered of potential value for treatment of patients with tumours resistant to classic topo II poisons, including anthracyclines and podophyllotoxins (Cummings and Smyth, 1993). The nuclear enzyme topo II is essential for the regulation of DNA conformation (reviewed in Osheroff et al, 1991). Central in its action is the formation of a complex with DNA. Stabilization of this complex by topo II poisons induces DNA damage and cell death (Froelich-Ammon and Osheroff, 1995). Decreased complex formation due to decreased topo II levels is considered to be an important mechanism of tumour-resistance to topo II poisons (Beck and Danks, 1991). The topo II catalytic inhibitor fostriecin is expected to have increased activity against tumour cells with low topo II levels and this was confirmed in in vitro studies (De Jong et al, 1991). […] Because of increased toxi- city of fostriecin in dogs compared to mice, a dose below one-third of the one-tenth mouse equivalent LD10, 2 mg m-2 day-1, was chosen as starting dose in humans (Clinical Brochure Fostriecin, 1991). […] We also performed an analysis of the human pharmacokinetics of fostriecin and ex vivo experiments to investigate if the plasma drug concentrations achieved were sufficient to inhibit a tenipo- side-resistant tumour cell line. The maximum tolerated dose (MTD) of fostriecin could not be established because drug supply was stopped prematurely. However, results of this study may provide a basis for continued clinical development of this agent. PATIENTS AND METHODS Patient selection, drug administration and evaluation Patient eligibility criteria were: histologically confirmed diagnosis of a solid tumour, no longer amenable to established forms of treatment; age 18-75 years; Eastern Cooperative Oncology Group (ECOG) performance status 2; life expectancy 12 weeks; no Phase I and pharmacokinetic study of the topoisomerase II catalytic inhibitor fostriecin RS de Jong1, NH Mulder1, DRA Uges2, DTh Sleijfer1, FJP Hoppener4, HJM Groen3, PHB Willemse1, WTA van der Graaf1 and EGE de Vries1 Departments of 1Medical Oncology, 2Pharmacy and Toxicology, and 3Pulmonary Diseases, University Hospital Groningen, The Netherlands; 4EORTC New Drug Development Office, Amsterdam, The Netherlands Summary We conducted a phase I and pharmacokinetic study of the topoisomerase II catalytic inhibitor fostriecin. Fostriecin was administered intravenously over 60 min on days 1-5 at 4-week intervals. Dose was escalated from 2 mg m-2 day-1 to 20 mg m-2 day-1 in 20 patients. Drug pharmacokinetics was analysed with high performance liquid chromatography with UV-detection. Plasma collected during drug administration was tested in vitro for growth inhibition of a teniposide-resistant small-cell lung cancer (SCLC) cell line. The predominant toxicities were elevated liver transaminases (maximum common toxicity criteria (CTC) grade 4) and serum creatinine (maximum CTC grade 2). […] Duration of elevated alanine-amino transferase (ALT) was dose-limiting in one patient at 20 mg m-2. Other frequent toxicities were grade 1-2 nausea/vomiting, fever and mild fatigue. […] A metabolite, most probably dephosphorylated fostriecin, was detected in plasma and urine. […] However, further escalation seems possible and is warranted to achieve potentially effective drug levels. Fostriecin has a short plasma half-life and longer duration of infusion should be considered. […]

[3] = 2 mg, patient no. 1, 2 mg m-2, one-compartment model
[4] = 2 mg, patient no. 3, 2 mg m-2, one-compartment model
[5] = 2 mg, patient no. 4, 2 mg m-2, one-compartment model
[6] = 4 mg, patient no. 5, 4 mg m-2, one-compartment model
[7] = 4 mg, patient no. 6, 4 mg m-2, one-compartment model
[8] = 4 mg, patient no. 7, 4 mg m-2, two-compartment model
[9] = 6.6 mg, patient no. 11, 6.6 mg m-2, two-compartment model
[10] = 6.6 mg, patient no. 12, 6.6 mg m-2, two-compartment model
[11] = 10 mg, patient no. 13, 10 mg m-2, two-compartment model
[12] = 10 mg, patient no. 15, 10 mg m-2, two-compartment model
[13] = 12.2 mg, patient no. 16, 12.2 mg m-2, two-compartment model

For `C[C@@](O)(/C=C/[C@H]1CC=CC(=O)O1)[C@@H](C[C@@H](O)\C=C/C=C\C=C\CO)OP(=O)(O)O` [fostriecin], the LD10 [1] is given as 120 mg m-2 day-1, the “number of patients with fostriecin detectable in plasma more than 7 h after infusion” value ([2]; in vivo) is given as “one” and the Cmax ([2]; 2 mg, patient no. 1, 2 mg m-2) is given as 495 ng/mL. It also gave an AUC [2, 3] of 739 ng·h/mL, an MRT [2, 3] of 51.6 min and a half-life ([2]; 2 mg, patient no. 1, 2 mg m-2, one-compartment model, read-out: t1/2 (converted)) of 36 min. For the same compound, the Cmax ([2]; 2 mg, patient no. 3, 2 mg m-2) was 597 ng/mL, the AUC [2, 4] was 810 ng·h/mL and the MRT [2, 4] was 46.2 min. The half-life ([2]; 2 mg, patient no. 3, 2 mg m-2, one-compartment model, read-out: t1/2 (converted)) was 32.4 min, the Cmax ([2]; 2 mg, patient no. 4, 2 mg m-2) was 371 ng/mL and the AUC [2, 5] was 468 ng·h/mL. It also gave an MRT [2, 5] of 30.6 min, a half-life ([2]; 2 mg, patient no. 4, 2 mg m-2, one-compartment model, read-out: t1/2 (converted)) of 21 min and a Cmax ([2]; 4 mg, patient no. 5, 4 mg m-2) of 1160 ng/mL. For the same compound, the AUC [2, 6] was 1360 ng·h/mL, the MRT [2, 6] was 43.2 min and the half-life ([2]; 4 mg, patient no. 5, 4 mg m-2, one-compartment model, read-out: t1/2 (converted)) was 30 min. It also gave a Cmax ([2]; 4 mg, patient no. 6, 4 mg m-2) of 956 ng/mL, an AUC [2, 7] of 1170 ng·h/mL and an MRT [2, 7] of 40.2 min. The half-life ([2]; 4 mg, patient no. 6, 4 mg m-2, one-compartment model, read-out: t1/2 (converted)) was 27.6 min, the Cmax ([2]; 4 mg, patient no. 7, 4 mg m-2) was 940 ng/mL and the AUC [2, 8] was 1490 ng·h/mL. It also gave an MRT [2, 8] of 116 min, a half-life ([2]; 4 mg, patient no. 7, 4 mg m-2, two-compartment model, read-out: t1/2 (initial) (converted)) of 15.6 min and a half-life ([2]; 4 mg, patient no. 7, 4 mg m-2, two-compartment model, read-out: t1/2 (terminal) (converted)) of 122 min. It also gave a Cmax ([2]; 6.6 mg, patient no. 11, 6.6 mg m-2) of 1400 ng/mL, an AUC [2, 9] of 1650 ng·h/mL and an MRT [2, 9] of 26.4 min. The half-life ([2]; 6.6 mg, patient no. 11, 6.6 mg m-2, two-compartment model, read-out: t1/2 (initial) (converted)) was 5.4 min, the half-life ([2]; 6.6 mg, patient no. 11, 6.6 mg m-2, two-compartment model, read-out: t1/2 (terminal) (converted)) was 28.2 min and the Cmax ([2]; 6.6 mg, patient no. 12, 6.6 mg m-2) was 1860 ng/mL. The AUC [2, 10] was 2450 ng·h/mL, the MRT [2, 10] was 37.8 min and the half-life ([2]; 6.6 mg, patient no. 12, 6.6 mg m-2, two-compartment model, read-out: t1/2 (initial) (converted)) was 15 min. For the same compound, the half-life ([2]; 6.6 mg, patient no. 12, 6.6 mg m-2, two-compartment model, read-out: t1/2 (terminal) (converted)) was 73.2 min, the Cmax ([2]; 10 mg, patient no. 13, 10 mg m-2) was 2240 ng/mL and the AUC [2, 11] was 3350 ng·h/mL. The MRT [2, 11] was 55.2 min, the half-life ([2]; 10 mg, patient no. 13, 10 mg m-2, two-compartment model, read-out: t1/2 (initial) (converted)) was 100 min and the half-life ([2]; 10 mg, patient no. 13, 10 mg m-2, two-compartment model, read-out: t1/2 (terminal) (converted)) was 55.8 min. It also gave a Cmax ([2]; 10 mg, patient no. 15, 10 mg m-2) of 2450 ng/mL, an AUC [2, 12] of 3770 ng·h/mL and an MRT [2, 12] of 60.6 min. For the same compound, the half-life ([2]; 10 mg, patient no. 15, 10 mg m-2, two-compartment model, read-out: t1/2 (initial) (converted)) was 18 min, the half-life ([2]; 10 mg, patient no. 15, 10 mg m-2, two-compartment model, read-out: t1/2 (terminal) (converted)) was 83.4 min and the Cmax ([2]; 12.2 mg, patient no. 16, 12.2 mg m-2) was 3200 ng/mL. For the same compound, the AUC [2, 13] was 4230 ng·h/mL, the MRT [2, 13] was 56.4 min and the half-life ([2]; 12.2 mg, patient no. 16, 12.2 mg m-2, two-compartment model, read-out: t1/2 (initial) (converted)) was 13.2 min.
